Like-named read-outs stand apart in the source and are kept apart here. One block for each compound: values may come before it. Where a SMILES comes first, the peptide text is derived from it. Bridges are numbered along the chain shown (N, C = ends). Side-chain parts run from the residue outwards. [ ]: non-standard residue; d: D form. The star is where a group is joined. DOTA = O=C(O)CN1CCN(CC(=O)O)CCN(CC(=O)*)CCN(CC(=O)O)CC1; 2Nal = N[C@@H](Cc1ccc2ccccc2c1)C(=O)O; Lys(iPr) = CC(C)NCCCC[C@H](N)C(=O)O
How the values were obtained:
[1] = quoted in discussion, approximate; ammonium salt of N-methylpiperidine; carboxylate in aspartate; no reference given; cited from earlier work
Source text: The placement of three consecutive charged amino acids may increase the pKa of the neighboring carboxylate due to unfavorable electrostatic repulsions. The sulfonate has a lower pKa than a carboxylate (approximately −1.7 versus 1.9 in aspartate), and as such, may be able to better retain its negative charge, thereby increasing the excretion of the radiotracer from the kidneys. However, there was no difference in LogD7.4 values between [^68Ga]Ga-BL02 and [^68Ga]Ga-BL31. The increased capacity to hold a negative cha ...

[2] = tested on: CXCR4-expressing Daudi xenograft mice; details: mouse, in vivo, iv
Method: (§1) Male NOD.Cg-Rag1tm1Mom Il2rgtm1Wjl/SzJ (NRG) mice were obtained from an in-house breeding colony at the Animal Resource Centre of the BC Cancer Research Centre, Vancouver, Canada. Mice (6–10 weeks old, 25–30 g weight) were subcutaneously inoculated with 5 × 10^6 Daudi cells (100 μL; 1:1 ratio of PBS/Matrigel) on the left flank.
(§2) Additional groups of mice received 7.5 µg (0.25–0.3 mg/kg) LY2510924 as a blocking control i.p. 15 min before radiotracer injection, and euthanized 1 h p.i. Tissues were harvested, washed in PBS, blotted dry, and weighed, and radioactivity was counted on a Hidex AMG Automatic Gamma Counter. The counts were decay corrected, converted to absolute units using a calibration curve, and expressed as percent injected dose per gram of tissue (%ID/g).

[3] = in vivo; details: male, NOD.Cg-Rag1tm1Mom Il2rgtm1Wjl/SzJ (NRG), mouse, iv, total radioactivity
Method: as §1, §2

[4] = tested on: mCXCR4; parameters: method as in PMID 29212254; details: cited from earlier work

Compound: CN1CCCCC1 [N-methylpiperidine]
pKa [1]: approximately 10.08

Blood uptake ([2]; 1 h): 0.27 ± 0.06 %ID/g
Liver uptake ([2]; 1 h): 0.57 ± 0.07 %ID/g
Lung uptake ([2]; 1 h): 0.45 ± 0.08 %ID/g
Spleen uptake ([2]; 1 h): 0.47 ± 0.22 %ID/g
Kidney uptake ([2]; 2 h): 3.40 ± 0.51 %ID/g
Liver uptake ([2]; 2 h): 0.54 ± 0.04 %ID/g
Lung uptake ([2]; 2 h): 0.27 ± 0.09 %ID/g
tissue uptake at 1 h ([3]; Kidney uptake): 3.81 ± 0.86 %ID/g
Compound: CC(C)NCCCC[C@@H]1NC(=O)[C@H](Cc2ccc(O)cc2)NC(=O)[C@H](Cc2ccccc2)NC(=O)CC[C@H](C(=O)N[C@@H](CCCCNC(C)C)C(=O)N[C@@H](CCCCNC(=O)[C@H](CCC(=O)O)NC(=O)[C@H](CCC(=O)O)NC(=O)[C@H](CCC(=O)O)NC(=O)CN2CCN(CC(=O)O)CCN(CC(=O)O)CCN(CC(=O)O)CC2)C(N)=O)NC(=O)CNC(=O)[C@H](Cc2ccc3ccccc3c2)NC(=O)[C@@H](CCCNC(=N)N)NC1=O [[68Ga]Ga-BL02, metal not drawn] (FY[Lys(iPr)][dR][2Nal]G[dE][Lys(iPr)]K([Glu-Glu-Glu-DOTA])-NH2; lactam N-7 (inferred); C-terminus assumed)

tissue uptake at 1 h ([3]; Tumor uptake (Daudi xenograft)): 0.59 %ID/g
Compound: CC(C)NCCCC[C@@H]1NC(=O)[C@H](Cc2ccc(O)cc2)NC(=O)[C@H](Cc2ccccc2)NC(=O)CC[C@H](C(=O)N[C@@H](CCCCNC(C)C)C(=O)N[C@@H](CCCCNC(=O)[C@@H](CCC(=O)O)NC(=O)[C@@H](CCC(=O)O)NC(=O)[C@@H](CCC(=O)O)NC(=O)CN2CCN(CC(=O)O)CCN(CC(=O)O)CCN(CC(=O)O)CC2)C(N)=O)NC(=O)CNC(=O)[C@H](Cc2ccc3ccccc3c2)NC(=O)[C@@H](CCCNC(=N)N)NC1=O [[68Ga]Ga-BL20, metal not drawn] (FY[Lys(iPr)][dR][2Nal]G[dE][Lys(iPr)]K([dE-dE-dE-DOTA])-NH2; lactam N-7)

Compound: N[C@@H](CC(=O)O)C(=O)O [aspartate]
pKa [1]: ~1.9

Compound: LY2510924
decrease in affinity to mCXCR4 as compared to hCXCR4 [4]: > 1000 fold

From PMC9316317, “Reducing the Kidney Uptake of High Contrast CXCR4 PET Imaging Agents via Linker Modifications” (Pharmaceutics, 2022)
